Results published in US12516067B2, “Antagonists of the muscarinic acetylcholine receptor M4” (Vanderbilt University, priority 2020, dated 2026).

Biological target: T1, Human M4 (Homo sapiens, UniProt P08173)
T1 construct: expressed in transfected cells; host or cells: CHO-K1 (ATCC), co-transfected with chimeric G protein Gqi5
T1 sequence (P08173 1-479): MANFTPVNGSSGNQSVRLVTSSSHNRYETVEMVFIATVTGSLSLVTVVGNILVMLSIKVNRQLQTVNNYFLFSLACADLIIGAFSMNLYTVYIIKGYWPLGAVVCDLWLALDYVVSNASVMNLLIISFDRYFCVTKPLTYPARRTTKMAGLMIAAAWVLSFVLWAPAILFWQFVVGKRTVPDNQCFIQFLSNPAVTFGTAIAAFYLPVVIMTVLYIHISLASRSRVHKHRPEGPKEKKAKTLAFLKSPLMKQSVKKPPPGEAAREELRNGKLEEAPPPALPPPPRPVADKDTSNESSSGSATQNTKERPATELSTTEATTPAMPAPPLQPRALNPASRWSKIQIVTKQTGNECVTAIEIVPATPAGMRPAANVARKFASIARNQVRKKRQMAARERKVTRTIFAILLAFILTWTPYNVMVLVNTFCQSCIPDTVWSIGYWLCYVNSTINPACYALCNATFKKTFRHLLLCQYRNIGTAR
Assay: mAChR M4 cell-based functional assay (calcium flux, decrease of EC80 acetylcholine response) in M4/Gqi5/CHO-K1 cells
Details: CHO-K1 cells with human M4 and Gqi5; for remaining activity at 30 µM: % ACh maximum at 30 μM, read-out: Human M4 Emin; for IC50: antagonist mode: concentration-dependent decrease of response to EC80 acetylcholine
Method: Human or rat M4 cDNA, along with the chimeric G protein Gqi5, were transfected into Chinese hamster ovary (CHO-K1) cells purchased from the American Type Culture Collection using Lipofectamine2000. M4/Gqi5/CHO cells were grown in Ham's F-12 medium containing 10% heat-inactivated fetal bovine serum (FBS), 20 mM HEPES, 500 μg/mL G418 sulfate, and 200 μg/mL Hygromycin B.
For high throughput measurement of agonist-evoked increases in intracellular calcium, CHO-K1 cells stably expressing muscarinic receptors were plated in growth medium lacking G418 and hygromycin at 15,000 cells/20 μL/well in Greiner 384-well black-walled, tissue culture (TC)-treated, clear-bottom plates (VWR). Cells were incubated overnight at 37° C. and 5% CO2. The next day, cells were washed using an ELX 405 (BioTek) with assay buffer; the final volume was then aspirated to 20 μL. Next, 20 μL of a 2.3 μM stock of Fluo-4/acetoxymethyl ester (Invitrogen, Carlsbad, CA), prepared as a 2.3 mM stock in DMSO and mixed in a 1:1 ratio with 10% (w/v) Pluronic F-127 and diluted in assay buffer, was added to the wells and the cell plates were incubated for 50 min at 37° C. and 5% CO2. Dye was removed by washing with the ELX 405 and the final volume was aspirated to 20 μL. Compound master plates were formatted in a 10 point concentration-response curve (CRC) format (1:3 dilutions) in 100% DMSO with a starting concentration of 10 or 1 mM using a BRAVO liquid handler (Agilent). Test compound CRCs were then transferred to daughter plates (240 nL) using the Echo acoustic plate reformatter (Labcyte, Sunnyvale, CA) and then diluted into assay buffer (40 μL) to a 2× stock using a Thermo Fisher Combi (Thermo Fisher Scientific, Waltham, MA).
Calcium flux was measured using the Functional Drug Screening System (FDSS) 6000 or 7000 (Hamamatsu Corporation, Tokyo, Japan) as an increase in the fluorescent static ratio. Compounds were applied to cells (20 μL, 2×) using the automated system of the FDSS at 2 seconds into the protocol and the data were collected at 1 Hz. At 143 s, 10 μL of an EC20 concentration of the muscarinic receptor agonist acetylcholine was added (5×), followed by the addition of 12 μL of an EC80 concentration of acetylcholine at the 268 s time point (5×). Agonist activity was analyzed as a concentration-dependent increase in calcium mobilization upon compound addition. Positive allosteric modulator activity was analyzed as a concentration-dependent increase in the EC20 acetylcholine response. Antagonist activity was analyzed as a concentration-dependent decrease in the EC80 acetylcholine response; for the purposes of the tables herein, an IC50 (inhibitory concentration 50) was calculated as a concentration-dependent decrease of the response elicited by an EC80 concentration of acetylcholine. Concentration-response curves were generated using a four-parameter logistical equation in XLFit curve fitting software (IDBS, Bridgewater, NJ) for Excel (Microsoft, Redmond, WA) or Prism (GraphPad Software, Inc., San Diego, CA) or the Dotmatics software platform (Dotmatics, Bishop's Stortford, UK).
Compounds were synthesized as described above. Activity (IC50 and Emin) was determined in the mAChR M4 cell-based functional assay as described above and the data are shown in Table 1.

remaining activity at 30 µM [%] | IC50 [nM] | Structure (SMILES)
6 | 87 | Fc1ccc(Cl)c(-c2ccc(NCc3cccc4c3CCN(CCC3CCOCC3)C4)nn2)c1 [B5, 6-(2-chloro-5-fluorophenyl)-N-((2-(2-(tetrahydro-2H-pyran-4-yl)ethyl)-1,2,3,4-tetrahydroisoquinolin-5-yl)methyl)pyridazin-3-amine]
6 | 257 | OC1(CN2CCc3c(CNc4ccc(-c5cc(F)ccc5Cl)nn4)cccc3C2)CCCCC1 [B6, 1-((5-(((6-(2-chloro-5-fluorophenyl)pyridazin-3-yl)amino)methyl)-3,4-dihydroisoquinolin-2(1H)-yl)methyl)cyclohexan-1-ol]
11 | 616 | Fc1cc(F)c(F)c(-c2ccc(NCc3cccc4c3CCN(CC3CCOCC3)C4)nn2)c1 [B7, N-((2-((tetrahydro-2H-pyran-4-yl)methyl)-1,2,3,4-tetrahydroisoquinolin-5-yl)methyl)-6-(2,3,5-trifluorophenyl)pyridazin-3-amine]
8 | 781 | Fc1ccc(F)c(-c2ccc(NCc3cccc4c3CCN(CC3CCOCC3)C4)nn2)c1 [B8, 6-(2,5-difluorophenyl)-N-((2-((tetrahydro-2H-pyran-4-yl)methyl)-1,2,3,4-tetrahydroisoquinolin-5-yl)methyl)pyridazin-3-amine]
8 | 1250 | Cn1cc2cc(-c3ccc(NCc4cccc5c4CCN(CC4CCOCC4)C5)nn3)ccc2n1 [B9, 6-(2-methyl-2H-indazol-5-yl)-N-((2-((tetrahydro-2H-pyran-4-yl)methyl)-1,2,3,4-tetrahydroisoquinolin-5-yl)methyl)pyridazin-3-amine]
5 | 335 | Cc1ccc(F)cc1-c1ccc(NCc2cccc3c2CCN(CC2CCOCC2)C3)nn1 [B10, 6-(5-fluoro-2-methylphenyl)-N-((2-((tetrahydro-2H-pyran-4-yl)methyl)-1,2,3,4-tetrahydroisoquinolin-5-yl)methyl)pyridazin-3-amine]
12 | 2700 | CC(=O)Nc1ccc(-c2ccc(NCc3cccc4c3CCN(CC3CCOCC3)C4)nn2)cc1 [B11, N-(4-(6-(((2-((tetrahydro-2H-pyran-4-yl)methyl)-1,2,3,4-tetrahydroisoquinolin-5-yl)methyl)amino)pyridazin-3-yl)phenyl)acetamide]
13 | 3380 | c1ccc(-c2ccc(NCc3cccc4c3CCN(CC3CCOCC3)C4)nn2)cc1 [B12, 6-phenyl-N-((2-((tetrahydro-2H-pyran-4-yl)methyl)-1,2,3,4-tetrahydroisoquinolin-5-yl)methyl)pyridazin-3-amine]
4 | 150 | [2H]C([2H])(C1CCOCC1)N1CCc2c(CNc3ccc(-c4cc(F)ccc4Cl)nn3)cccc2C1 [B13, 6-(2-chloro-5-fluorophenyl)-N-((2-((tetrahydro-2H-pyran-4-yl)methyl-d2)-1,2,3,4-tetrahydroisoquinolin-5-yl)methyl)pyridazin-3-amine]
5 | 919 | [2H]C([2H])(C1CCOCC1)N1CCc2c(CNc3ccc(-c4cc(F)cc(F)c4F)nn3)cccc2C1 [B14, N-((2-((tetrahydro-2H-pyran-4-yl)methyl-d2)-1,2,3,4-tetrahydroisoquinolin-5-yl)methyl)-6-(2,3,5-trifluorophenyl)pyridazin-3-amine]
